From PMC13249423, “Capsaicin acts as a novel NRF2 agonist to suppress ethanol induced gastric mucosa oxidative damage by directly disrupting the KEAP1-NRF2 interaction” (eLife, 2026)

Experiments:
[1] = target: T1, KEAP1 (mutant Kelch domain) (Homo sapiens, UniProt Q14145, N382A/N414A/R380A/R415A/S602A/Y334A/Y572A); test: BLI with purified biotinylated mutant Kelch; assay type: binding
T1 construct: Kelch domain of KEAP1 (Lys312-Cys624)

KEAP1 (Kelch domain, WT) = target: T2, KEAP1 (Kelch domain, WT) (Homo sapiens, UniProt Q14145); test: BLI with purified biotinylated Kelch (also HDX-MS, CETSA in GES-1 cells, pull-down and SPR disruption of KEAP1-NRF2); assay type: binding
T2 construct: Kelch domain of KEAP1 (Lys312-Cys624)
T2 sequence (Q14145 312-624): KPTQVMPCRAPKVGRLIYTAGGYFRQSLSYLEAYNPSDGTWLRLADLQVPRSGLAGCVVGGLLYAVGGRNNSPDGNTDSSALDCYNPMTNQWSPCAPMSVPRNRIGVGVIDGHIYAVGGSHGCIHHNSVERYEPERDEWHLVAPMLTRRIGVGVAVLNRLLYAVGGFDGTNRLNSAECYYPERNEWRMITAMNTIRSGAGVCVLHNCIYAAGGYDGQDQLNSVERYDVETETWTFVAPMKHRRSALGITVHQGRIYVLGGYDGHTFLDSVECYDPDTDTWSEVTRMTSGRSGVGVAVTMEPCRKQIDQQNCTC

T1 sequence (Q14145 312-624 Y334A/R380A/N382A/N414A/R415A/Y572A/S602A): as the sequence (Q14145 312-624) above, with Y23A, R69A, N71A, N103A, R104A, Y261A, S291A counted along it

SMILES: COc1cc(CNC(=O)CCCC/C=C/C(C)C)ccc1O [CAP, capsaicin]
- Kd [1]: 102 µM
- Kd (KEAP1 (Kelch domain, WT)): 31.5 µM
